Experimental data taken from PMC12332667, “Role of Structural Modifications in Peptidomimetic Compounds as Potential Antimicrobial Agents against Staphylococcus aureus and Streptococcus pyogenes: Balancing Bioavailability, Safety, and Antimicrobial Activity” (ACS Omega, 2025).

Legend:
[1] = system: K. pneumoniae ATCC 700603; test: MIC/MBC broth microdilution, K. pneumoniae; assay type: cell-based
Method: (§1) S. aureus (ATCC 29213),S. pyogenes (ATCC 19615),Streptococcus agalactiae (ATCC 27956),Escherichia coli (ATCC 25922),Proteus vulgaris (ATCC 6896),K. pneumoniae (ATCC 700603) andP. aeruginosa (ATCC 10145) reference strains, as well asStaphylococcus cohnii, Enterococcus faecalis, Staphylococcus schleiferi, Staphylococcus intermedius and Streptococcus mutans clinical isolates, were used to test the antibacterial activity of the peptidomimetics. Bacteria were aerobically cultured for 18 h at 37 °C in plates with sterilized brain heart infusion (BHI) broth (Sigma-Aldrich, USA) media mixed with bacteriological agar (Sigma-Aldrich, USA) using the streak plate method. After 18 h, BHI broth was inoculated to 0.5 on the McFarland scale and diluted to approximately 10^5 CFU/mL. To achieve a final stock concentration of 1024 μg/mL, the peptidomimetics were dissolved in sterile water, and 5–10% of absolute ethanol or dimethyl sulfoxide (DMSO) was added. The antibacterial activities were determined by using the standard broth microdilution method of the National Committee for Clinical Laboratory Standards. The process involved adding serially diluted peptidomimetics to consecutive wells of a 96-well microtiter plate (Brand, Germany) holding media with microorganisms. The inoculated plates treated with peptides were then placed in an incubator at 37 °C for 18 h. The MIC value was determined as the lowest concentration of peptidomimetic at which there was no obvious growth (equal or more than 90% of the untreated sample). […] The lowest concentration yielding growth in no more than 3 colonies, corresponding to at least a 99.9% kill rate, was taken as MBC. Each biological replicate included control wells with the addition of water, DMSO, and ethanol as respective solvent controls. All experiments were conducted with consistent adherence to growth and sterility controls and were performed at least in technical triplicate with three biological repeats.

[2] = system: immortalized human keratinocytes (HaCaT); test: LDH cytotoxicity test, keratinocytes; assay type: cell-based; settings: 48 h, 50-150 μg/mL
Method: (§2) In our study, we used two distinct cell types: immortalized human HaCaT keratinocytes (DKFZ, Heidelberg, Germany) and a human dermal fibroblast cell line (46BR.1N). […] Cultures were maintained in a humidified atmosphere with 5% CO2 at 37 °C in 25 cm^2 culture flasks with the medium replenished every 2 days. The condition of the cells was monitored using optical microscopy.
(§3) Cell death in immortalized human keratinocytes (HaCaT) and fibroblasts (46BR.1N) was measured by quantifying the lactate dehydrogenase (LDH) activity using a commercial kit (Roche, Switzerland). Cells were seeded in 96-well plates at a density of 5000 cells per well in DMEM high glucose medium supplemented with 10% FBS. After 24 h of incubation, the medium was replaced with serum-free medium containing various concentrations of peptidomimetics (50, 100, and 150 μg/mL). After 48 h, supernatants were collected for LDH analysis. Plate readings were taken spectrophotometrically using a 450 nm wavelength. Cell death measurements were normalized to an untreated control (0%), with 1% Triton X-100 detergent used as a positive control to induce maximum LDH release, indicating maximal cytotoxicity. Statistical significance was determined with a Mann–Whitney U test with a statistical significance p ≤ 0.05. Analysis was performed with Statistica software (Krakow, Poland) and graphs were prepared in GraphPad Prism (Boston, USA).

S. cohnii c.i. = test: MIC/MBC broth microdilution, S. cohnii; assay type: cell-based, Staphylococcus cohnii
Method: as §1

S. agalactiae ATCC 27956 = test: MIC/MBC broth microdilution, S. agalactiae; assay type: cell-based, Streptococcus agalactiae; settings: S. agalactiae
Method: as §1

S. pyogenes ATCC 19615 = test: MIC/MBC broth microdilution, S. pyogenes; assay type: cell-based, Streptococcus pyogenes; settings: S. pyogenes
Method: as §1

E. faecalis c.i. = test: MIC/MBC broth microdilution, E. faecalis; assay type: cell-based, Enterococcus faecalis
Method: as §1

S. mutans c.i. = test: MIC/MBC broth microdilution, S. mutans; assay type: cell-based, Streptococcus mutans
Method: as §1

P. aeruginosa ATCC 10145 = test: MIC/MBC broth microdilution, P. aeruginosa; assay type: cell-based
Method: as §1

[3] = Hydrophobicity by reverse-phase chromatography; assay type: physicochemical; settings: acetonitrile content in the mobile phase at the retention time
Text: Reverse-phase chromatography was employed to assess the hydrophobicity characteristics of the peptidomimetics. Hydrophobicity was quantified by determining the acetonitrile content in the mobile phase at the retention time of a peptidyl derivative (Table S2). The least hydrophobic compound (40% acetonitrile) was A-198, which aligns with the calculations of hydrophobicity by SwissADME and pkCSM (Table ). Next in the hydrophobicity sequence were A-197, A-220, A-219, A-174, and A-221, eluting with 42.5-43.9% of acetonitrile. Then there were followed by […], and A-179, with the acetonitrile percentage of 44.8-49.8. The compounds A-176, A-20, A-152, A-134, and A-210 needed over 50% of acetonitrile to be eluted from the column.

P. vulgaris ATCC 6896 = test: MIC/MBC broth microdilution, P. vulgaris; assay type: cell-based, Proteus vulgaris
Method: as §1

S. aureus ATCC 43300 = test: MIC/MBC broth microdilution, S. aureus; assay type: cell-based, Staphylococcus aureus; settings: S. aureus
E. coli ATCC 25922 = test: MIC/MBC broth microdilution, E. coli; assay type: cell-based, Escherichia coli
Method: as §1

[4] = system: immortalized human HaCaT keratinocytes; test: XTT cell proliferation assay, keratinocytes; assay type: cell-based; settings: XTT, 48 and 72 h, 0.01–150 μg/mL
Method: (§4) In our study, we used two distinct cell types: immortalized human HaCaT keratinocytes (DKFZ, Heidelberg, Germany) and a human dermal fibroblast cell line (46BR.1N). […] Cultures were maintained in a humidified atmosphere with 5% CO2 at 37 °C in 25 cm^2 culture flasks with the medium replenished every 2 days. The condition of the cells was monitored using optical microscopy. […] After 24 h of incubation, the medium was replaced with serum-free HG-DMEM containing appropriate concentrations of peptidomimetics. All solutions used in the experiments were prepared with double-distilled water or with the addition of ethanol under sterile conditions to ensure compatibility with the conditions of the bacteriological assay. For 72 h of incubation, half of the medium was replaced with fresh medium after 48 h, and cells were stimulated with peptides for a second time. The XTT cell proliferation assay was then performed according to the manufacturer’s instructions (Roche, Switzerland). Cells were treated with the peptides for either 48 or 72 h, followed by the addition of XTT reagent, and the plates were then incubated at 37 °C in a 5% CO2 environment for 4 h. Plate readings were taken using a standard plate reader at a wavelength of 490 nm (OD = 490 nm). […] Statistical significance was determined with a Mann–Whitney U test with statistical significance p ≤ 0.05. Analysis was performed with Statistica software, and graphs were prepared in GraphPad Prism.

S. schleiferi c.i. = test: MIC/MBC broth microdilution, S. schleiferi; assay type: cell-based, Staphylococcus schleiferi
Method: as §1

[5] = system: human dermal fibroblast cell line (46BR.1N); test: XTT cell proliferation assay, fibroblasts; assay type: cell-based; settings: XTT, 48 and 72 h, 0.01–150 μg/mL
Method: as §4

fibroblasts (46BR.1N) = test: LDH cytotoxicity test, fibroblasts; assay type: cell-based; settings: 48 h, 50-150 μg/mL
Method: as §2, §3

CC(C)[C@@H](CNC(=O)/C=C/c1ccccc1)NC(=O)[C@H](Cc1c[nH]cn1)NC(=O)[C@H](CCCCN)NC(=O)OCc1ccccc1 [Compound A-174]
> 512 µg/mL: MIC ([1]; H2O) | MIC ([1]; water additive DMSO) | MIC ([1]; water additive EtOH) | MIC (E. faecalis c.i.; H2O) | MIC (E. faecalis c.i.; water additive DMSO) | MIC (E. faecalis c.i.; water additive EtOH) | MIC (S. mutans c.i.; H2O) | MIC (S. mutans c.i.; water additive DMSO) | MIC (S. mutans c.i.; water additive EtOH) | MIC (P. aeruginosa ATCC 10145; H2O) | MIC (P. aeruginosa ATCC 10145; water additive DMSO) | MBC (P. aeruginosa ATCC 10145; water additive EtOH) | MIC (P. vulgaris ATCC 6896; H2O) | MIC (P. vulgaris ATCC 6896; water additive DMSO) | MBC (P. vulgaris ATCC 6896; water additive EtOH) | MIC (E. coli ATCC 25922; H2O) | MIC (E. coli ATCC 25922; water additive DMSO) | MIC (E. coli ATCC 25922; water additive EtOH) | MIC (S. schleiferi c.i.; H2O) | MIC (S. schleiferi c.i.; water additive DMSO)
512 µg/mL: MBC (S. agalactiae ATCC 27956; H2O) | MIC (S. agalactiae ATCC 27956; H2O) | MBC (S. agalactiae ATCC 27956; water additive DMSO) | MIC (S. agalactiae ATCC 27956; water additive DMSO) | MBC (S. agalactiae ATCC 27956; water additive EtOH) | MIC (P. aeruginosa ATCC 10145; water additive EtOH) | MIC (P. vulgaris ATCC 6896; water additive EtOH) | MBC (S. aureus ATCC 43300; H2O) | MBC (S. aureus ATCC 43300; water additive DMSO) | MIC (S. aureus ATCC 43300; water additive DMSO) | MBC (S. aureus ATCC 43300; water additive EtOH) | MIC (S. aureus ATCC 43300; water additive EtOH) | MBC (S. schleiferi c.i.; water additive EtOH) | MIC (S. schleiferi c.i.; water additive EtOH)
did not exert any negative impact: effect on proliferation, in words [4] | effect on proliferation, in words [5]
no cytotoxicity: cytotoxicity (LDH), in words [2] | cytotoxicity (LDH), in words (fibroblasts (46BR.1N))
256 µg/mL: MBC (S. cohnii c.i.; H2O) | MIC (S. cohnii c.i.; H2O) | MBC (S. cohnii c.i.; water additive DMSO) | MBC (S. cohnii c.i.; water additive EtOH) | MIC (S. agalactiae ATCC 27956; water additive EtOH) | MBC (S. pyogenes ATCC 19615; H2O) | MBC (S. pyogenes ATCC 19615; water additive DMSO) | MBC (S. pyogenes ATCC 19615; water additive EtOH) | MIC (S. aureus ATCC 43300; H2O)
42.9%: % AcCN (acetonitrile required for elution from the column) [3]
